Reference: patent EP1285919A1, “C10 Carbonate substituted taxanes as antitumor agents” (Florida State University Research Foundation, Inc., priority 2001, dated 2003)

Tests used:
SK-MES carcinoma = test system: SK-MES carcinoma
Description: (§1) In Vivo Evaluation of Antitumor Compounds Against Human Lung Carcinoma Xenografts
(§2) The compounds were prepared in the manner as described for Solution 2 of Example 10. Taxol (paclitaxel, Bristol Meyers Squibb), used as a control, was obtained as the marketed pharmaceutical drug.
(§3) Taxol itself was given as a split i.v. dose of 36 mg/kg, with the two 18 mg/kg doses separated by one hour. Vehicle control animals were dosed twice intravenously with half the total volume being given separated by one hour. The study was terminated on Day 60.
(§4) The results are summarized in Table 1 and include mean days of survival (MDS), number of toxic deaths, number of survivors, number of complete or partial responses, and number with stable disease. The mean days of survival is the number of days after which a SKMES neoplasm reached a size of 1.5 g and the animal was euthanized. A complete response is obtained if the tumor is not palpable at the end of the study. A partial response is obtained if the tumor shrinks to a size smaller than its size on Day 1 of the study.
(§5) A tumor scoring system was designed to provide a more quantitative ranking of efficacy (therapeutic potential) among the antitumor agents evaluated against the different human solid tumor xenografts. Each mouse in a study was given a score of from 1 to 10 at the end of the study. The scores can be summarized as follows:
(§6) The individual score for each mouse was averaged into a mean score for each treatment group. […]

[1] = test system: NCI-H1299 (H1299) carcinoma
Description: as §1, §2, §3, §4, §5, §6
The treatment protocol for the H1299 test was identical to the SK-MES test protocol. […]

[2] = number of mice of six, i.v. split dose qd x 1, Taxol 36 mg/kg, 1755 49 mg/kg

## CC(=O)O[C@H]1C(=O)[C@@]2(C)[C@H]([C@H](OC(=O)c3ccccc3)[C@]3(O)C[C@H](OC(=O)[C@H](O)[C@@H](NC(=O)c4ccccc4)c4ccccc4)C(C)=C1C3(C)C)[C@]1(OC(C)=O)CO[C@@H]1C[C@@H]2O [Taxol]
SK-MES carcinoma; Taxol 36 mg/kg i.v.
  survival extension compared to vehicle controls: 30%
SK-MES carcinoma; mean days of survival until tumor 1.5 g, i.v. split dose qd x 1, Taxol 36 mg/kg, 1755 49 mg/kg, six mice per group
  MDS (n): 16 ± 2.0 (6) days
SK-MES carcinoma; [2]
  Toxic Deaths: 0
SK-MES carcinoma; number of mice of six, study ended Day 60
  Survivors: 0
SK-MES carcinoma; number of mice of six, tumor below 1.5 g at end of study
  Stable Disease: 0
SK-MES carcinoma; number of mice of six, tumor not palpable at end of study
  Complete Response: 0
SK-MES carcinoma; number of mice of six, tumor smaller than on Day 1
  Partial Response: 0
SK-MES carcinoma; tumor score 1 to 10 per mouse, averaged per group (10 = complete response)
  Mean Score: 1.3 ± 0.3
[1]; Taxol 36 mg/kg i.v., five animals
  survival extension compared to vehicle-treated animals: 10%
[1]; mean days of survival, i.v. split dose qd x 1, Taxol 36 mg/kg, 1755 49 mg/kg, six mice per group
  MDS (n): 27.0 ± 4.6 (5) days
[1]; number of mice of six
  Complete Response: 0
  Stable Disease: 0
  Survivors: 1
[1]; [2]
  Toxic Deaths: 0
[1]; tumor score 1 to 10 per mouse, averaged per group
  Mean Score: 2.7 ± 1.3
